Measurements from patent US10106558B2, “Azolobenzazine compounds, compositions comprising these compounds and their use for controlling invertebrate pests” (BASF SE, priority 2015, dated 2018).
Like-named read-outs stand apart in the source and are kept apart here.

Experiments:
Format in all cases: in vivo
[1] = test system: boll weevil (Anthonomus grandis); assay: Action on boll weevil, eggs on insect diet in 96-well microtiter plates; settings: 120 h, read-out: mortality in comparison with untreated controls
Description: Example B3: Action on Boll Weevil (Anthonomus grandis)
For evaluating control of boll weevil (Anthonomus grandis) the test unit consisted of 96-well-microtiter plates containing an insect diet and 5-10 A. grandis eggs.
(§1) The compounds were formulated using a solution containing 75% v/v water and 25% v/v DMSO. Different concentrations of formulated compounds were sprayed onto the insect diet at 5 μl, using a custom built micro atomizer, at two replications.
After application, microtiter plates were incubated at about 25±1° C. and about 75±5% relative humidity for 5 days. Egg and larval mortality was then visually assessed.

[2] = test system: yellow fever mosquito (Aedes aegypti); assay: whole plant or invertebrate; settings: 48 h, larval mortality visually assessed after 2 days, read-out: mortality in comparison with untreated controls
Description: Example B1: Action on Yellow Fever Mosquito (Aedes aegypti)
For evaluating control of yellow fever mosquito (Aedes aegypti) the test unit consisted of 96-well-microtiter plates containing 200 μl of tap water per well and 5-15 freshly hatched A. aegypti larvae.
The active compounds were formulated using a solution containing 75% (v/v) water and 25% (v/v) DMSO. Different concentrations of formulated compounds or mixtures were sprayed onto the insect diet at 2.5 μl, using a custom built micro atomizer, at two replications.
After application, microtiter plates were incubated at 28+1° C., 80+5% RH for 2 days. Larval mortality was then visually assessed.

[3] = test system: green peach aphid (Myzus persicae) (mixed life stages); assay: Action on green peach aphid, liquid artificial diet under artificial membrane; settings: 72 h, read-out: mortality in comparison with untreated controls
Text: Example B8: Action on Green Peach Aphid (Myzus persicae) (Mixed Life Stages)
For evaluating control of green peach aphid (Myzus persicae) through systemic means the test unit consisted of 96-well-microtiter plates containing liquid artificial diet under an artificial membrane.
The compounds were formulated using a solution containing 75% v/v water and 25% v/v DMSO. Different concentrations of formulated compounds were pipetted into the aphid diet, using a custom built pipetter, at two replications.
After application, 5-8 adult aphids were placed on the artificial membrane inside the microtiter plate wells. The aphids were then allowed to suck on the treated aphid diet and incubated at about 23±1° C. and about 50±5% relative humidity for 3 days. Aphid mortality and fecundity was then visually assessed.

[4] = test system: tobacco budworm (Heliothis virescens); assay: Action on tobacco budworm, eggs on insect diet in 96-well microtiter plates; settings: 120 h, egg and larval mortality visually assessed after 5 days, read-out: mortality in comparison with untreated controls
Description: Example B6: Action on Tobacco Budworm (Heliothis virescens)
For evaluating control of tobacco budworm (Heliothis virescens) the test unit consisted of 96-well-microtiter plates containing an insect diet and 15-25 H. virescens eggs.
The compounds were formulated using a solution containing 75% v/v water and 25% v/v DMSO. Different concentrations of formulated compounds were sprayed onto the insect diet at 10 μl, using a custom built micro atomizer, at two replications.
After application, microtiter plates were incubated at about 28±1° C. and about 80±5% relative humidity for 5 days. Egg and larval mortality was then visually assessed.

[5] = test system: Southern Armyworm (Spodoptera eridania), 2nd instar larvae; assay: Action on southern armyworm 2nd instar larvae, sprayed lima bean plants; settings: 96 h, 4 days after treatment, read-out: mortality in comparison with untreated controls
Description: Example B10: Action on Southern Armyworm (Spodoptera eridania), 2nd Instar Larvae
The active compounds were formulated by a Tecan liquid handler in 100% cyclohexanone as a 10,000 ppm solution supplied in tubes. The 10,000 ppm solution was serially diluted in 100% cyclohexanone to make interim solutions. These served as stock solutions for which final dilutions were made by the Tecan in 50% acetone:50% water (v/v) into 10 or 20 ml glass vials. A nonionic surfactant (Kinetic®) was included in the solution at a volume of 0.01% (v/v). The vials were then inserted into an automated electrostatic sprayer equipped with an atomizing nozzle for application to plants/insects.
Lima bean plants (variety Sieva) were grown 2 plants to a pot and selected for treatment at the 1st true leaf stage. Test solutions were sprayed onto the foliage by an automated electrostatic plant sprayer equipped with an atomizing spray nozzle. The plants were dried in the sprayer fume hood and then removed from the sprayer. Each pot was placed into perforated plastic bags with a zip closure. About 10 to 11 armyworm larvae were placed into the bag and the bags zipped closed. Test plants were maintained in a growth room at about 25° C. and about 20-40% relative humidity for 4 days, avoiding direct exposure to fluorescent light (24 hour photoperiod) to prevent trapping of heat inside the bags. Mortality and reduced feeding were assessed 4 days after treatment, compared to untreated control plants.

[6] = test system: Diamond Back Moth (Plutella xylostella); assay: Action on diamond back moth, dipped cabbage leaves; settings: 3rd instar larvae, 72 hours after treatment, read-out: mortality in comparison with untreated controls
Description: Example B9: Action on Diamond Back Moth (Plutella xylostella)
The active compound is dissolved at the desired concentration in a mixture of 1:1 (vol:vol) distilled water:acetone. Surfactant (Kinetic® HV) is added at a rate of 0.01% (vol/vol). The test solution is prepared at the day of use.
Leaves of cabbage were dipped in test solution and air-dried. Treated leaves were placed in petri dishes lined with moist filter paper and inoculated with ten 3rd instar larvae. Mortality was recorded 72 hours after treatment. Feeding damages were also recorded using a scale of 0-100%.

[7] = test system: Orchid Thrips (Dichromothrips corbetti); assay: Action on orchid thrips, floral-immersion technique; settings: adult thrips, 72 hours after treatment, read-out: mortality in comparison with untreated controls
Description: Example B2: Action on Orchid Thrips (Dichromothrips Corbetti)
Dichromothrips corbettiadults used for bioassay were obtained from a colony maintained continuously under laboratory conditions. For testing purposes, the test compound is diluted in a 1:1 mixture of acetone:water (vol:vol), plus Kinetic® HV at a rate of 0.01% v/v.
Thrips potency of each compound was evaluated by using a floral-immersion technique. All petals of individual, intact orchid flowers were dipped into treatment solution and allowed to dry in Petri dishes. Treated petals were placed into individual re-sealable plastic along with about 20 adult thrips. All test arenas were held under continuous light and a temperature of about 28° C. for duration of the assay. After 3 days, the numbers of live thrips were counted on each petal. The percent mortality was recorded 72 hours after treatment.

[8] = test system: Mediterranean fruitfly (Ceratitis capitata); assay: Action on Mediterranean fruitfly, eggs on insect diet in microtiter plates; settings: 120 h, egg and larval mortality visually assessed after 5 days, read-out: mortality in comparison with untreated controls
Description: Example B5: Action on Mediterranean Fruitfly (Ceratitis capitata)
For evaluating control of Mediterranean fruitfly (Ceratitis capitata) the test unit consisted of microtiter plates containing an insect diet and 50-80 C. capitata eggs.
as §1
After application, microtiter plates were incubated at about […] and about 80+5% relative humidity for 5 days. Egg and larval mortality was then visually assessed.

[9] = test system: Silverleaf Whitefly (Bemisia argentifolii) (Adults); assay: Action on silverleaf whitefly adults, sprayed cotton plants; settings: 72 h, 3 days after treatment, read-out: mortality in comparison with untreated controls
Description: Example B4: Action on Silverleaf Whitefly (Bemisia argentifolii) (Adults)
The active compounds were formulated by a Tecan liquid handler in 100% cyclohexanone as a 10,000 ppm solution supplied in tubes. The 10,000 ppm solution was serially diluted in 100% cyclohexanone to make interim solutions. These served as stock solutions for which final dilutions were made by the Tecan in 50% acetone:50% water (v/v) into 5 or 10 ml glass vials. A nonionic surfactant (Kinetic®) was included in the solution at a volume of 0.01% (v/v). The vials were then inserted into an automated electrostatic sprayer equipped with an atomizing nozzle for application to plants/insects.
Cotton plants at the cotyledon stage (one plant per pot) were sprayed by an automated electrostatic plant sprayer equipped with an atomizing spray nozzle. The plants were dried in the sprayer fume hood and then removed from the sprayer. Each pot was placed into a plastic cup and about 10 to 12 whitefly adults (approximately 3-5 days old) were introduced. The insects were collected using an aspirator and a nontoxic Tygon® tubing connected to a barrier pipette tip. The tip, containing the collected insects, was then gently inserted into the soil containing the treated plant, allowing insects to crawl out of the tip to reach the foliage for feeding. Cups were covered with a reusable screened lid. Test plants were maintained in a growth room at about 25° C. and about 20-40% relative humidity for 3 days, avoiding direct exposure to fluorescent light (24 hour photoperiod) to prevent trapping of heat inside the cup. Mortality was assessed 3 days after treatment, compared to untreated control plants.

[10] = test system: vetch aphid (Megoura viciae); assay: Action on vetch aphid, broad bean leaf disks in 24-well microtiter plates; settings: foliar, 120 h, adult aphids on treated leaf disks, 5 days, read-out: mortality in comparison with untreated controls
Description: Example B7: Action on Vetch Aphid (Megoura viciae)
For evaluating control of vetch aphid (Megoura viciae) through contact or systemic means the test unit consisted of 24-well-microtiter plates containing broad bean leaf disks.
The compounds were formulated using a solution containing 75% v/v water and 25% v/v DMSO. Different concentrations of formulated compounds were sprayed onto the leaf disks at 2.5 μl, using a custom built micro atomizer, at two replications.
After application, the leaf disks were air-dried and 5-8 adult aphids placed on the leaf disks inside the microtiter plate wells. The aphids were then allowed to suck on the treated leaf disks and incubated at about 23±1° C. and about 50±5% relative humidity for 5 days. Aphid mortality and fecundity was then visually assessed.

[11] = 800 ppm, egg and larval mortality visually assessed after 5 days
[12] = 800 ppm, adult aphids on treated aphid diet, 3 days

Cc1ccc(C(C)C)c(NC(=S)N/N=C/c2ccc3c(ccc4c3ncn4-c3ccc(OC(F)(F)F)cc3)n2)c1 [Compound C-5, 1-(2-isopropyl-5-methyl-phenyl)-3-[(E)-[3-[4-(trifluoromethoxy)phenyl]imidazo[4,5-f]quinolin-7-yl]methyleneamino]thiourea]
≥ 75%: mortality at 800 ppm [1, 11] | mortality at 800 ppm [2] | mortality at 800 ppm [3, 12] | mortality at 800 ppm [4] | mortality at 500 ppm [5] | mortality at 500 ppm [6] | mortality at 500 ppm [7] | mortality at 800 ppm [8]

CC(C)c1ccccc1N1/C(=N/N=C/c2ccc3c(ccc4c3ncn4-c3ccc(OC(F)(F)F)cc3)n2)SCC1(C)O (centres unmarked) [Compound C-9, (2Z)-3-(2-isopropylphenyl)-4-methyl-2-[(E)-[3-[4-(trifluoromethoxy)phenyl]imidazo[4,5-f]quinolin-7-yl]methylenehydrazono]thiazolidin-4-ol]
≥ 75%: mortality at 800 ppm [1, 11] | mortality at 800 ppm [2] | mortality at 800 ppm [3, 12] | mortality at 800 ppm [4] | mortality at 500 ppm [9] | mortality at 500 ppm [5] | mortality at 500 ppm [6] | mortality at 500 ppm [7] | mortality at 800 ppm [8]

CC(C)c1ccccc1N1C(=O)CS/C1=N\N=C\c1ccc2c(ccc3c2ncn3-c2ccc(C(F)(F)F)nn2)n1 [Compound C-10, (2Z)-3-(2-isopropylphenyl)-2-[(E)-[3-[6-(trifluoromethyl)pyridazin-3-yl]imidazo[4,5-f]quinolin-7-yl]methylenehydrazono]thiazolidin-4-one]
≥ 75%: mortality at 800 ppm [1, 11] | mortality at 800 ppm [4] | mortality at 500 ppm [9] | mortality at 500 ppm [5] | mortality at 500 ppm [6] | mortality at 800 ppm [10] | mortality at 500 ppm [7] | mortality at 800 ppm [8]

CC(OC(=O)Nc1ccc2c(ccc3c2ncn3-c2ccc(OC(F)(F)F)cc2)n1)c1ccc(Cl)cn1 (centres unmarked) [Compound C-11, 1-(5-chloro-2-pyridyl)ethyl N-[3-[4-(trifluoromethoxy)phenyl]imidazo[4,5-f]quinolin-7-yl]carbamate]
≥ 75%: mortality at 800 ppm [1] | mortality at 800 ppm [2] | mortality at 800 ppm [3]

Cc1cccc(C)c1N1CCCS/C1=N/N=C/c1ccc2c(ccc3c2ncn3-c2ccc(OC(F)(F)F)cc2)n1 [Compound C-23, (E)-3-(2,6-dimethylphenyl)-N-[(E)-[3-[4-(trifluoromethoxy)phenyl]imidazo[4,5-f]quinolin-7-yl]methyleneamino]-1,3-thiazinan-2-imine]
≥ 75%: mortality at 800 ppm [1, 11] | mortality at 800 ppm [2] | mortality at 800 ppm [4] | mortality at 500 ppm [9] | mortality at 500 ppm [5] | mortality at 500 ppm [6] | mortality at 500 ppm [7] | mortality at 800 ppm [8]

CC(C)c1ccccc1/N=C1\SCC(=O)N1/N=C/c1cc2ccc3c(ncn3-c3ccc(OC(F)(F)F)cc3)c2cn1 [Compound C-28, (2Z)-2-(2-isopropylphenyl)imino-3-[(E)-[3-[4-(trifluoromethoxy)phenyl]imidazo[4,5-h]isoquinolin-7-yl]methyleneamino]thiazolidin-4-one]
≥ 75%: mortality at 800 ppm [1, 11] | mortality at 800 ppm [2] | mortality at 800 ppm [4] | mortality at 500 ppm [5] | mortality at 500 ppm [6] | mortality at 800 ppm [10] | mortality at 800 ppm [8]

Cc1cccc(C)c1N1CCS/C1=N/N=C/c1ccc2c(ccc3c2ncn3-c2ccc(OC(F)(F)F)cc2)n1 [Compound C-30, (E)-3-(2,6-dimethylphenyl)-N-[(E)-[3-[4-(trifluoromethoxy)phenyl]imidazo[4,5-f]quinolin-7-yl]methyleneamino]thiazolidin-2-imine]
≥ 75%: mortality at 800 ppm [1, 11] | mortality at 800 ppm [3, 12] | mortality at 800 ppm [4] | mortality at 500 ppm [6]
